Assay results as given in patent US10294202B2, “Pyrrolidinones as herbicides” (FMC Corporation, priority 2013, dated 2019).

How the values were obtained:
crabgrass, large = assay: Test A pre-/postemergence herbicide test; assay type: in vivo, Digitaria sanguinalis; settings: for Crabgrass, Large plant response rating: visual rating on 0 to 100 scale (0 no effect, 100 complete control)
Method in brief: (§1)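 Greenhouse pot test with pre- and postemergence application of surfactant-containing solvent formulations. Postemergence plants were 2–10 cm, one- to two-leaf stage. Response scored visually after ~10 days, 0 (no effect) to 100 (complete control).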

ducksalad = assay: Test C flooded paddy test; assay type: in vivo, Heteranthera limosa; settings: Flood
Method in brief: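 2-leaf stage; flood 3 cm over soil; compound into paddy water; depth held; greenhouse 13–15 d; visual % control vs untreated (0 = none, 100 = complete); "-" = not tested.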

velvetleaf = assay: Test A pre-/postemergence herbicide test; assay type: in vivo, Abutilon theophrasti; settings: for Velvetleaf plant response rating: visual rating on 0 to 100 scale (0 no effect, 100 complete control)
Method in brief: as §1

corn = assay: Test A pre-/postemergence herbicide test; assay type: in vivo, Zea mays; settings: for Corn plant response rating: visual rating on 0 to 100 scale (0 no effect, 100 complete control)
Method in brief: as §1

morningglory = assay: Test A pre-/postemergence herbicide test; assay type: in vivo, Ipomoea spp.; settings: for Morningglory plant response rating: visual rating on 0 to 100 scale (0 no effect, 100 complete control)
Method in brief: as §1

wheat (winter wheat) = assay: Test C pre-/postemergence herbicide test; assay type: in vivo, Triticum aestivum; settings: Preemergence; for Plant response rating (scale of 0 to 100), Wheat: 250 g ai/ha
Method in brief: (§2)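 Greenhouse pots; formulation = non-phytotoxic solvent mix + surfactant. PRE onto seeds in loam:sand; POST at 1–4 leaves (2–18 cm) in peat moss/vermiculite medium. Read-out: visual % control vs untreated, day 13–15.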

blackgrass = assay: Test C pre-/postemergence herbicide test; assay type: in vivo, Alopecurus myosuroides; settings: Preemergence; for Blackgrass plant response rating: 31 g ai/ha
Method in brief: as §2

[1] = Postemergence, 125 g ai/ha, 0 to 100 scale, 0 no effect, 100 complete control
[2] = Postemergence, 500 g ai/ha, 0 to 100 scale (0 no effect, 100 complete control)
[3] = preemergence, 500 g ai/ha, 0 to 100 scale
[4] = 31 g ai/ha, scale 0 to 100, 0 is no effect and 100 is complete control
[5] = 125 g ai/ha, scale 0 to 100 (0 no effect, 100 complete control)
[6] = Postemergence, 125 g ai/ha, 0 to 100 scale, 0 is no effect, 100 is complete control
[7] = Preemergence, 125 g ai/ha, 0 to 100 scale where 0 is no effect and 100 is complete control
[8] = preemergence, 500 g ai/ha, 0 to 100 scale, 0 is no effect and 100 is complete control
[9] = scale 0 to 100, 0 is no effect and 100 is complete control
[10] = 250 g ai/ha, scale 0 to 100 (0 no effect, 100 complete control)
[11] = scale 0 to 100 (0 no effect, 100 complete control)

`O=C1NCC(c2cccc(C(F)(F)F)c2)C1C(=O)Nc1ccccc1F` (racemic) [Compound 3] was tested, and the “Plant response rating, Crabgrass, Large” value (crabgrass, large; [1]) was 70, the “Plant response rating, Crabgrass, Large” value (crabgrass, large; [2]) was 80 and the “Crabgrass, Large plant response rating” value (crabgrass, large; Preemergence, 125 g ai/ha) was 90. The “Plant response rating, Crabgrass, Large” value (crabgrass, large; [3]) was 90, the “Plant response rating, Ducksalad” value (ducksalad; 31 g ai/ha, scale of 0 to 100 where 0 is no effect and 100 is complete control, 13 to 15 days) was 40 and the “Plant response rating, Ducksalad” value (ducksalad; 62 g ai/ha, scale of 0 to 100 where 0 is no effect and 100 is complete control, 13 to 15 days) was 60. For the same compound, the “Plant response rating, Ducksalad” value (ducksalad; 125 g ai/ha, scale of 0 to 100 where 0 is no effect and 100 is complete control, 13 to 15 days) was 85, the “Plant response rating, Ducksalad” value (ducksalad; 250 g ai/ha, scale 0 to 100) was 90 and the “Plant response rating, Velvetleaf” value (velvetleaf; [2]) was 0. The “Velvetleaf plant response rating” value (velvetleaf; Preemergence, 125 g ai/ha) was 0, the “Plant response rating, Velvetleaf” value (velvetleaf; [3]) was 0 and the “Plant response rating, Corn” value (corn; [1]) was 0. For the same compound, the “Plant response rating, Corn” value (corn; [2]) was 60, the “Corn plant response rating” value (corn; Preemergence, 125 g ai/ha) was 0 and the “Plant response rating, Corn” value (corn; [3]) was 50. For the same compound, the “Plant response rating, Morningglory” value (morningglory; [2]) was 30, the “Morningglory plant response rating” value (morningglory; Preemergence, 125 g ai/ha) was 0 and the “Plant response rating, Morningglory” value (morningglory; [3]) was 0.

`O=C1NCC(c2cccc(C(F)(F)F)c2)C1C(=O)Nc1cccc(F)c1F` (stereo not shown) [Compound 241] was tested, and the “Wheat plant response rating” value (wheat (winter wheat); [4]) was 0, the “Wheat plant response rating” value (wheat (winter wheat); 62 g ai/ha, scale 0 to 100 (0 no effect, 100 complete control)) was 45 and the “Plant response rating, Wheat” value (wheat (winter wheat); [5]) was 90. For the same compound, the “Plant response rating (scale of 0 to 100), Wheat” value (wheat (winter wheat)) was 80, the “Plant response rating, Crabgrass, Large” value (crabgrass, large; [6]) was 70 and the “Plant response rating, Crabgrass, Large” value (crabgrass, large; [2]) was 80. The “Plant response rating, Crabgrass, Large” value (crabgrass, large; [7]) was 90, the “Plant response rating, Crabgrass, Large” value (crabgrass, large; [8]) was 90 and the “Plant response rating, Velvetleaf” value (velvetleaf; [6]) was 0. For the same compound, the “Plant response rating, Velvetleaf” value (velvetleaf; [2]) was 20, the “Plant response rating, Velvetleaf” value (velvetleaf; [7]) was 0 and the “Plant response rating, Velvetleaf” value (velvetleaf; [8]) was 0. The “Blackgrass plant response rating” value (blackgrass; [9]) was 50, the “Plant response rating, Blackgrass” value (blackgrass; 62 g ai/ha, scale 0 to 100) was 70 and the “Plant response rating, Blackgrass” value (blackgrass; [5]) was 80. The “Plant response rating (scale of 0 to 100), Blackgrass” value (blackgrass; 250 g ai/ha) was 85, the “Plant response rating, Corn” value (corn; [6]) was 50 and the “Plant response rating, Corn” value (corn; [2]) was 80. The “Plant response rating, Corn” value (corn; [7]) was 20, the “Plant response rating, Corn” value (corn; [8]) was 50 and the “Plant response rating, Morningglory” value (morningglory; [6]) was 20. For the same compound, the “Plant response rating, Morningglory” value (morningglory; [2]) was 30, the “Plant response rating, Morningglory” value (morningglory; [7]) was 0 and the “Plant response rating, Morningglory” value (morningglory; [8]) was 0.

In the case of `O=C1NCC(c2cccc(Br)c2)C1C(=O)Nc1ccccc1F` (stereo not shown) [Compound 66], the “Wheat plant response rating” value (wheat (winter wheat); [4]) is reported as 0, the “Plant response rating, Wheat” value (wheat (winter wheat); 62 g ai/ha, scale 0 to 100) is reported as 0 and the “Plant response rating, Wheat” value (wheat (winter wheat); [5]) is reported as 5. The “Plant response rating, Crabgrass, Large” value (crabgrass, large; [1]) was 80, the “Plant response rating, Crabgrass, Large” value (crabgrass, large; [2]) was 80 and the “Crabgrass, Large plant response rating” value (crabgrass, large; Preemergence, 125 g ai/ha) was 80. For the same compound, the “Plant response rating, Crabgrass, Large” value (crabgrass, large; [3]) was 90, the “Plant response rating, Velvetleaf” value (velvetleaf; [1]) was 0 and the “Plant response rating, Velvetleaf” value (velvetleaf; [2]) was 0. For the same compound, the “Velvetleaf plant response rating” value (velvetleaf; Preemergence, 125 g ai/ha) was 0, the “Plant response rating, Velvetleaf” value (velvetleaf; [3]) was 0 and the “Blackgrass plant response rating” value (blackgrass; [9]) was 0. The “Plant response rating, Blackgrass” value (blackgrass; 62 g ai/ha, scale 0 to 100) was 0, the “Plant response rating, Blackgrass” value (blackgrass; [5]) was 0 and the “Plant response rating, Blackgrass” value (blackgrass; [10]) was 20. For the same compound, the “Plant response rating, Corn” value (corn; [1]) was 20, the “Plant response rating, Corn” value (corn; [2]) was 80 and the “Corn plant response rating” value (corn; Preemergence, 125 g ai/ha) was 20. For the same compound, the “Plant response rating, Corn” value (corn; [3]) was 20, the “Plant response rating, Morningglory” value (morningglory; [1]) was 0 and the “Plant response rating, Morningglory” value (morningglory; [2]) was 0. For the same compound, the “Morningglory plant response rating” value (morningglory; Preemergence, 125 g ai/ha) was 0 and the “Plant response rating, Morningglory” value (morningglory; [3]) was 0.

In the case of `O=C1NCC(c2ccc3c(c2)OC(F)(F)O3)C1C(=O)Nc1cccc(F)c1F` (stereo not shown) [Compound 62], the “Plant response rating, Wheat” value (wheat (winter wheat); 62 g ai/ha, scale 0 to 100) is reported as 0, the “Plant response rating, Wheat” value (wheat (winter wheat); [5]) is reported as 0 and the “Plant response rating, Crabgrass, Large” value (crabgrass, large; [1]) is reported as 80. For the same compound, the “Plant response rating, Crabgrass, Large” value (crabgrass, large; [2]) was 90, the “Crabgrass, Large plant response rating” value (crabgrass, large; Preemergence, 125 g ai/ha) was 90 and the “Plant response rating, Crabgrass, Large” value (crabgrass, large; [3]) was 90. For the same compound, the “Plant response rating, Velvetleaf” value (velvetleaf; [1]) was 0, the “Plant response rating, Velvetleaf” value (velvetleaf; [2]) was 0 and the “Velvetleaf plant response rating” value (velvetleaf; Preemergence, 125 g ai/ha) was 0. For the same compound, the “Plant response rating, Velvetleaf” value (velvetleaf; [3]) was 0, the “Blackgrass plant response rating” value (blackgrass; [11]) was 0 and the “Plant response rating, Blackgrass” value (blackgrass; 62 g ai/ha, scale 0 to 100) was 45. For the same compound, the “Plant response rating, Blackgrass” value (blackgrass; [5]) was 80, the “Plant response rating, Blackgrass” value (blackgrass; [10]) was 80 and the “Plant response rating, Corn” value (corn; [1]) was 40. The “Plant response rating, Corn” value (corn; [2]) was 70, the “Corn plant response rating” value (corn; Preemergence, 125 g ai/ha) was 0 and the “Plant response rating, Corn” value (corn; [3]) was 0. The “Plant response rating, Morningglory” value (morningglory; [1]) was 0, the “Plant response rating, Morningglory” value (morningglory; [2]) was 0 and the “Morningglory plant response rating” value (morningglory; Preemergence, 125 g ai/ha) was 0. For the same compound, the “Plant response rating, Morningglory” value (morningglory; [3]) was 0.

For `O=C1NCC(c2ccc(F)c(Cl)c2)C1C(=O)Nc1cccc(F)c1F` (stereo not shown) [Compound 59], the “Plant response rating, Wheat” value (wheat (winter wheat); 62 g ai/ha, scale 0 to 100) was 0, the “Plant response rating, Wheat” value (wheat (winter wheat); [5]) was 0 and the “Plant response rating, Crabgrass, Large” value (crabgrass, large; [1]) was 70. For the same compound, the “Plant response rating, Crabgrass, Large” value (crabgrass, large; [2]) was 90, the “Crabgrass, Large plant response rating” value (crabgrass, large; Preemergence, 125 g ai/ha) was 90 and the “Plant response rating, Crabgrass, Large” value (crabgrass, large; [3]) was 90. For the same compound, the “Plant response rating, Velvetleaf” value (velvetleaf; [1]) was 0, the “Plant response rating, Velvetleaf” value (velvetleaf; [2]) was 0 and the “Velvetleaf plant response rating” value (velvetleaf; Preemergence, 125 g ai/ha) was 0. The “Plant response rating, Velvetleaf” value (velvetleaf; [3]) was 0, the “Blackgrass plant response rating” value (blackgrass; [11]) was 0 and the “Plant response rating, Blackgrass” value (blackgrass; 62 g ai/ha, scale 0 to 100) was 0. For the same compound, the “Plant response rating, Blackgrass” value (blackgrass; [5]) was 30, the “Plant response rating, Blackgrass” value (blackgrass; [10]) was 60 and the “Plant response rating, Corn” value (corn; [1]) was 0. For the same compound, the “Plant response rating, Corn” value (corn; [2]) was 30, the “Corn plant response rating” value (corn; Preemergence, 125 g ai/ha) was 0 and the “Plant response rating, Corn” value (corn; [3]) was 0. The “Plant response rating, Morningglory” value (morningglory; [1]) was 0, the “Plant response rating, Morningglory” value (morningglory; [2]) was 0 and the “Morningglory plant response rating” value (morningglory; Preemergence, 125 g ai/ha) was 0. The “Plant response rating, Morningglory” value (morningglory; [3]) was 0.

`O=C1NCC(c2ccc(F)c(C(F)(F)F)c2)C1C(=O)Nc1ccccc1C(F)(F)F` (racemic) [Compound 78] was tested, and the “Wheat plant response rating” value (wheat (winter wheat); [4]) was 10, the “Plant response rating, Wheat” value (wheat (winter wheat); 62 g ai/ha, scale 0 to 100) was 30 and the “Plant response rating, Wheat” value (wheat (winter wheat); [5]) was 60. The “Plant response rating (scale of 0 to 100), Wheat” value (wheat (winter wheat)) was 90, the “Plant response rating, Crabgrass, Large” value (crabgrass, large; [1]) was 70 and the “Plant response rating, Crabgrass, Large” value (crabgrass, large; [2]) was 80. For the same compound, the “Crabgrass, Large plant response rating” value (crabgrass, large; Preemergence, 125 g ai/ha) was 90, the “Plant response rating, Crabgrass, Large” value (crabgrass, large; [3]) was 90 and the “Plant response rating, Velvetleaf” value (velvetleaf; [1]) was 20. For the same compound, the “Plant response rating, Velvetleaf” value (velvetleaf; [2]) was 60, the “Velvetleaf plant response rating” value (velvetleaf; Preemergence, 125 g ai/ha) was 0 and the “Plant response rating, Velvetleaf” value (velvetleaf; [3]) was 30. For the same compound, the “Blackgrass plant response rating” value (blackgrass; [9]) was 30, the “Plant response rating, Blackgrass” value (blackgrass; 62 g ai/ha, scale 0 to 100) was 75 and the “Plant response rating, Blackgrass” value (blackgrass; [5]) was 75. For the same compound, the “Plant response rating (scale of 0 to 100), Blackgrass” value (blackgrass; 250 g ai/ha) was 85, the “Plant response rating, Corn” value (corn; [1]) was 20 and the “Plant response rating, Corn” value (corn; [2]) was 50. For the same compound, the “Corn plant response rating” value (corn; Preemergence, 125 g ai/ha) was 0, the “Plant response rating, Corn” value (corn; [3]) was 0 and the “Plant response rating, Morningglory” value (morningglory; [1]) was 0. The “Plant response rating, Morningglory” value (morningglory; [2]) was 0, the “Morningglory plant response rating” value (morningglory; Preemergence, 125 g ai/ha) was 0 and the “Plant response rating, Morningglory” value (morningglory; [3]) was 0.
